The source of these data is publication PMC9446078 (Frontiers in Endocrinology, 2022).

On the set-up of data set [1]: method as in PMID 2879662, PMID 7957532, PMID 6135794. The settings on record: approved (intravenous) dose; cited from earlier work.
The subject of a further data set is bovine serum albumin. As to the kind of experiment: Inhibition of advanced glycation end products (fluorometric, glucose + bovine serum albumin). The class given is biochemical. The settings on record: control mean 7.5. As for the experimental part: Fluorescence was measured at the excitation wavelength of 360 nm and the emission wavelength of 440 nm. Afterwards, the samples were cooled to room temperature.

Data set [2] relates to Ea.hy926 (human endothelial cells). The data set can be described thus: Scratch assay, endothelial cell migration under high glucose. Type of data set: cell-based. As for the experimental part:
High blood glucose levels hamper the migration of human fibroblasts, endothelial cells, and keratinocytes that impair wound healing ([16]–[20]). […] The detailed protocol and cytotoxicity results are provided in the Supplementary File. An actively growing culture of HFF-1 (human dermal fibroblasts), Ea.hy926 (human endothelial cells), and HaCaT (human keratinocytes) cell lines in Dulbecco’s modified Eagle’s medium containing 25 mM glucose supplemented with 10% fetal bovine serum was prepared. The cells were counted through a hemocytometer and were seeded at a density of 0.08 × 10^6 (HFF-1), 0.1 × 10^6 (Ea.hy926), and 0.2 × 10^6 (HaCaT Cells) cells/well/ml of culture medium. The plates were incubated overnight followed by serum starvation for 24 h. Scratch wounds were made in a confluent monolayer by making a straight scratch in the center of the well using a sterile 200-µl pipette microtip. […] The kinetics of migration of the cells in the wound was recorded by phase-contrast microscopy. The experiment was carried out in duplicate cells for each concentration.

In another data set the test system is Hanford miniature swine. As to the kind of experiment: 12-week dermal toxicity study in miniature swine. Type of data set: in vivo. As for the experimental part: A total of 40 Hanford miniature swine (20 male and 20 female) divided into four treatment groups were used for this study. A 12-week topical application of Galnobax 20% was carried out in the miniature swine wound healing model with twice-daily dosing. Six wounds (10 cm^2 each) of partial thickness were created on the dorsal region of all animals. Four wounds of each animal received twice-daily topical doses of either the vehicle or Galnobax gel, and the remaining two sites served as untreated comparative control wounds. Each group has four male and female miniature swine for the assessments and one each for the recovery period as given in Table 1 . Safety parameters in terms of ECG, clinical pathology, wound site evaluation, and toxicokinetics were performed during the study.

The test system of a further data set is red blood cells. As to the kind of experiment: Inhibition of sorbitol formation in erythrocytes. To be noted: at IC50 concentration; compared with glucose-induced sorbitol levels (30 mM glucose, 3 h). The class given is cell-based, human. As for the experimental part:
The method in brief is discussed below. Five milliliters of blood sample was obtained from a healthy volunteer on overnight fasting in heparinized tubes. Red blood cells were separated by centrifugation and washed three times with isotonic saline at 4°C. The washed RBC were suspended in Kreb’s ringer bicarbonate buffer, pH 7.4 (preequilibrated with 5% CO2), and incubated at 37°C in the presence of 5% CO2 for 3 h under normal (3.0 mM) and high glucose (30 mM) conditions. […] At the end of the incubation period, RBC was homogenized in nine volumes of 0.8 M perchloric acid. The homogenate was centrifuged at 5,000 × g at 4°C for 10 min, and the pH of the supernatant was adjusted to 3.5 with 0.5 M potassium carbonate. The sorbitol content of the supernatant was measured by fluorometric method as described previously ([14]) using a spectrofluorometer (Jasco-FP-6500).

Structures can show the parent of a compound that is named as a salt.

With `COC(=O)CCc1ccc(OCC(O)CNC(C)C)cc1` (stereo not drawn) [Esmolol hydrochloride], the “Cmax of the approved human dose” value in data set [1] is recorded as 868–1,470 ng/ml. For the same compound, the “Fluorescence measurement, mean” value with bovine serum albumin (500 µM) is listed as 5; with bovine serum albumin (1 mM), 2.6; in the data set with bovine serum albumin (1 mM, listed as esmolol) it was 2.6 ± 1.7. The “migration of endothelial cells” value in data set [2] (1 and 10 µM, compared with control, high glucose) is “enhanced the migration”; in data set [2] (100 and 500 µM compared with 1 and 10 µM) it was “lower migration”. Further, in the data set with Hanford miniature swine (subcutaneously administered esmolol (30 mg/kg once or twice daily) plus topical Galnobax), the “local reactions at the injection sites” value is reported as “moderate to severe local reactions”. Moreover, the ovary weights result in the data set with Hanford miniature swine (subcutaneously administered esmolol plus topical Galnobax, no histopathologic changes) was “reduction in absolute and relative ovary weights”. The “inhibition of sorbitol formation in red blood cells” value in the data set on red blood cells is recorded as 59%.
